This assay has as its target T1, 12-lipoxygenase (Sus scrofa, UniProt P16469).
T1 construct: porcine leukocyte cytosol containing 12-lipoxygenase; from tissue; host or cells: porcine leukocyte cytosol
T1 sequence (P16469 1-663): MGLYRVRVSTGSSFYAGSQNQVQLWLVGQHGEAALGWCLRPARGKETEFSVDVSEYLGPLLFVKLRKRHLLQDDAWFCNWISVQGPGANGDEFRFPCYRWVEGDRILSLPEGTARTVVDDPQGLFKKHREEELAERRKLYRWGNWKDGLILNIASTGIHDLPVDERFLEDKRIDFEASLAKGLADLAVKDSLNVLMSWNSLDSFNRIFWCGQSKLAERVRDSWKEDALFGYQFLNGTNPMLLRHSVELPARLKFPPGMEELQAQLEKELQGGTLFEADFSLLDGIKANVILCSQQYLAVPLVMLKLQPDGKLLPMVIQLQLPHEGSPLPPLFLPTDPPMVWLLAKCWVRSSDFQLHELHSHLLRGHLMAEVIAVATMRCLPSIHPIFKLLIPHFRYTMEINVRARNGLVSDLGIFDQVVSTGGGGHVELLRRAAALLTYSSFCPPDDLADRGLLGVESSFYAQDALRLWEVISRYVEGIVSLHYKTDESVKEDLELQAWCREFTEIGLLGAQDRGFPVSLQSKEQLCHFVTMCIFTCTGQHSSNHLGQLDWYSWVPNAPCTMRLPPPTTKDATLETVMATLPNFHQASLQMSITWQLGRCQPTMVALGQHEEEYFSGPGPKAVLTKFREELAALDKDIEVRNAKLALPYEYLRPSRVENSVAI
As to the kind of experiment: Inhibition of 12-lipoxygenase activity by aryl aliphatic acids (porcine leukocyte cytosol, conversion of [1-14C] arachidonic acid to 12-HETE). The class given is biochemical. The conditions noted are these: porcine leukocyte cytosol 0.075 mg/ml protein; 0.1 M HEPES, pH 8.0; 5 min preincubation, 15 min at 37° C.; arachidonic acid given as 5 mM. On the procedure: The standard assay procedure is as follows: […] [1^-14 C] Arachidonic acid was added (final concentration of […]) and the reactions were incubated for 15 minutes at 37° C. and terminated by the addition of HCl. […] Samples were extracted with water-saturated ethyl acetate and the extracts were spotted onto TLC plates. The plates were developed with dichloromethane/ethyl acetate/acetic acid in a ratio of 70:30:1. […] The percentage conversion to 12-HETE was calculated from the percentage of the total ^14 C on the TLC plate that coelutes with a standard of 12-HETE.

Consider `CCCCCCCCCCC#CCOCc1ccc(CCC(=O)O)cc1` [Compound 24, 3-[4-(2-Tridecynyloxymethyl)phenyl]propanoic Acid], for which the IC50 was 35 nM. As to `CCCCCCC#CCOCc1ccc(CCC(=O)O)cc1` [Compound 25, 3-[4-(2-Nonynyloxymethyl)phenyl]propanoic Acid], the IC50 came out at 2000 nM. Regarding `CCCCCCCCC#CCOCc1ccc(CCC(=O)O)cc1` [Compound 26, 3-[4-(2-Undecynyloxymethyl)phenyl]propanoic Acid], the IC50 was 100 nM. Take `CCCCCCCCCCCCC#CCOCc1ccc(CCC(=O)O)cc1` [Compound 27, 3-[4-(2-Pentadecynyloxymethyl)phenyl]propanoic Acid]: the 50% inhibitory concentration (IC50) stood at 320 nM. The same measure for `CCCCCCCCCCc1ccc(COCc2ccc(CCC(=O)O)cc2)cc1` [Compound 30, 3-[4-[4-(Decylphenylmethyl)oxymethyl]phenyl]propanoic Acid]: 5000 nM.

Regarding `CCCCCCCCCC/C=C\COCc1ccc(CCC(=O)O)cc1` [Compound 31, cis-3-[4-(2-Tridecenyloxymethyl)-phenyl]propanoic Acid], the IC50 worked out at 1000 nM. As for `CCCCCCCCCC/C=C/COCc1ccc(CCC(=O)O)cc1` [Compound 32, trans-3-[4-(2-Tridecenyloxymethyl)phenyl]propanoic Acid], the figure is 400 nM; as for `CCCCCCCCCCC=C=CCOCc1ccc(CCC(=O)O)cc1` [Compound 34, (S)-(+)-3-[4-(2,3-Tetradecadienyloxymethyl)phenyl]propanoic Acid], 280 nM. As for `CCCCCCCCCCC=C=CCOCc1ccc(CCC(=O)O)cc1` [Compound 35, (R)-3-[4-(2,3-Tetradecadienyloxymethyl)], the figure is 450 nM.

What is called IC50 is the concentration at which inhibition is half-maximal.

Values taken from patent US5238832A, “Aryl aliphatic acids” (Board of Governors of Wayne State University, priority 1992, dated 1993).
